Laboratory results: US20250074934A1, “CRYSTAL OF 4’-SUBSTITUTED NUCLEOSIDE, AND PREPARATION METHOD THEREFOR, COMPOSITION THEREOF AND USE THEREOF” (HENAN GENUINE BIOTECH CO., LTD., priority 2022, published 2025)

Key:
[1] = stability of crystal forms on storage, drying or heating, checked by XRPD; type: physicochemical
Experimental: The type XVI crystal was heated to 55° C. in a nitrogen atmosphere and held for 2 to 24 h.
The type XVI crystal and the type XVII crystal were left at 60±5° C. for 5 days, respectively.
The type XVII crystal was left for 5 days under the conditions of 25° C. and 92.5±5% humidity.
The type XVIII crystal was heated to 150° C. or left for 24 h under the conditions of 25° C. and 92.5±5% humidity.
The crystal suffered from a weight loss of 13.2% when heated to 110° C., and a weight loss of 3.5% when further heated to 200° C. Three endothermic signals occurred in the range of 80° C. to 140° C. The type I crystal was heated to 55° C. under nitrogen protection and then cooled to room temperature. The sample was removed and exposed to air to test XRPD.
As the type II crystal was unstable and had been transformed after dying for a short period of time, no further studies were carried out on the type II crystal.
Under the conditions of nitrogen protection, the type IV crystal was heated to 141° C. and then tested for XRPD.
The type V crystal was subjected to the variable-temperature XRPD test.
The type VI crystal was heated to 160° C. under the nitrogen protection.
Under the nitrogen protection, the type VII crystal was heated to 130° C. and then cooled to room temperature. The sample was removed and exposed to the air to test XRPD.
Under the nitrogen protection, the type VIII crystal was heated to 160° C. and then cooled to room temperature. The sample was removed and exposed to the air to test XRPD.
The crystal was heated to 95° C. under nitrogen protection and then cooled to room temperature. The sample was removed and exposed to the air to test XRPD. […] The crystal was heated to 160° C. under the same conditions of nitrogen protection and then cooled to room temperature. The sample was removed and exposed to the air to test XRPD.
The type X crystal was subjected to the variable-temperature XRPD test.
The samples open dried at room temperature were characterized by TGA/DSC.
Meanwhile, the type XIII crystal was coated to test XRPD, and new type XIV crystal could be observed.

[2] = LC-MS detection of chemical changes in the crystal; type: physicochemical; details: obtained from type XVI crystal left at 60° C. for 5 days
Experimental: The type XVI crystal was left at 60° C. for 5 days to obtain a type XVIII crystal, which was an anhydrous crystal.

[3] = test system: HIV; details: cited from earlier work; for EC50: read-out: HIV inhibitory activity EC50
[4] = within the tested dose range; read-out: cytotoxicity CC50; cited from earlier work
[5] = heated to 160° C. under nitrogen protection

## C#C[C@]1(CO)O[C@@H](n2cnc3c(N)nc(F)nc32)[C@@H](F)[C@@H]1O [type XII crystal]
[1]; vacuum drying at room temperature for 10 min
  crystal form after vacuum drying: transformed into an amorphous crystal

## C#C[C@]1(CO)O[C@@H](n2cnc3c(N)nc(F)nc32)[C@@H](F)[C@@H]1O [type XIII crystal]
[1]; left in a solvent environment at room temperature
  crystal form in solvent environment: transformed into the type XIV crystal
[1]; open dried at room temperature for about 2 h
  crystal form after open drying: crystal form was transformed

## C#C[C@]1(CO)O[C@@H](n2cnc3c(N)nc(F)nc32)[C@@H](F)[C@@H]1O [type XIV crystal]
[1]; removed from the solvent environment
  crystal form after removal from solvent: transformed into the type XIII crystal

## C#C[C@]1(CO)O[C@@H](n2cnc3c(N)nc(F)nc32)[C@@H](F)[C@@H]1O [type XVII crystal]
[1]; dried at 90° C. for 1 to 24 h
  crystal form after drying: obtain the type XVIII crystal
[1]; left for 5 days at 25° C. and 92.5±5% humidity
  crystal form by XRPD after storage: type XVI crystal was obtained

## C#C[C@]1(CO)O[C@@H](n2cnc3c(N)nc(F)nc32)[C@@H](F)[C@@H]1O [type XVIII crystal]
[1]; heated to 150° C.
  crystal form by XRPD after heating: crystal form did not change
[1]; left for 24 h at 25° C. and 92.5±5% humidity
  crystal form by XRPD after storage: crystal form did not change
[2]
  chemical changes by LC-MS: did not undergo chemical changes

## C#C[C@]1(CO)O[C@@H](n2cnc3c(N)nc(F)nc32)[C@@H](F)[C@@H]1O [type XV crystal]
[1]; heated to 120° C.
  crystal form after heating: crystal form was transformed

## C#C[C@]1(CO)O[C@@H](n2cnc3c(N)nc(F)nc32)C[C@@H]1O [Compound 1]
[3]
  EC50: 0.05 nM
[3]; versus 4′-ethynyl-2′-deoxyadenosine (EdA)
  increase of HIV inhibitory activity by introduction of 2-fluorine: 2200 times

## C#C[C@]1(CO)O[C@@H](n2cnc3c(N)nc(F)nc32)[C@@H](F)[C@@H]1O [type XVI crystal]
[1]; heated to 55° C. in nitrogen atmosphere, held 2 to 24 h
  crystal form by XRPD after heating: type XVII crystal was also obtained
[1]; left at 60±5° C. for 5 days
  crystal form by XRPD after storage: transformed into the type XVIII crystals
[1]; vacuum drying at room temperature for 24 h
  crystal form after vacuum drying: transformed into a monohydrate crystal form—type XVII crystal

## C#C[C@]1(CO)O[C@@H](n2cnc3c(N)nc(F)nc32)[C@@H](F)[C@@H]1O [type II crystal]
[1]; vacuum drying at room temperature for half an hour
  crystal form after vacuum drying: transformed into a type III crystal

## C#C[C@]1(CO)O[C@@H](n2cnc3c(N)nc(F)nc32)[C@@H](F)[C@@H]1O [compound (3), (2R,3R,4S,5R)-5-(6-amino-2-fluoro-9H-purin-9-yl)-2-ethynyl-4-fluoro-2-(hydroxymethyl)tetrahydrofuran-3-ol]
[3]
  EC50: 0.9 nM
[4]
  CC50: > 8000 nM

## C#C[C@]1(CO)O[C@@H](n2cnc3c(N)nc(F)nc32)[C@@H](F)[C@@H]1O [type IX crystal]
[1]; heated to 95° C. under nitrogen, cooled to room temperature, exposed to air
  XRPD after heating: degree of crystallinity was further decreased
[1]; [5]
  XRPD after heating: crystal form had been transformed
[1]; left closed at room temperature for about 3 days
  crystallinity after closed storage: reduced degree of crystallinity

## C#C[C@]1(CO)O[C@@H](n2cnc3c(N)ncnc32)C[C@@H]1O [EdA, 4′-ethynyl-2′-deoxyadenosine]
[3]
  EC50: 11 nM

## C#C[C@]1(CO)O[C@@H](n2cnc3c(N)nc(F)nc32)[C@@H](F)[C@@H]1O [type VII crystal]
[1]; heated to 130° C. under nitrogen, cooled to room temperature, exposed to air
  XRPD after heating: crystal form was transformed

## C#C[C@]1(CO)O[C@@H](n2cnc3c(N)nc(F)nc32)[C@@H](F)[C@@H]1O [type V crystal]
[1]; further heated to 154° C.
  variable-temperature XRPD: transformed into another crystal
[1]; heated to 90° C. and 130° C. under nitrogen
  variable-temperature XRPD: substantially transformed into an amorphous crystal
[1]; purged with nitrogen for about 20 min
  variable-temperature XRPD, nitrogen purge: significant decrease in degree of crystallinity

## C#C[C@]1(CO)O[C@@H](n2cnc3c(N)nc(F)nc32)[C@@H](F)[C@@H]1O [type IV crystal]
[1]; 120° C.
  stability by TGA: unstable
[1]; dried crystal left closed at room temperature for about 5 days
  XRPD of dried crystal after closed storage: increased relative intensity of the diffraction peaks and increased number of diffraction peaks
[1]; heated to 141° C. under nitrogen protection
  XRPD after heating: transformed into a stable type III crystal
[1]; vacuum dried at room temperature for 15 min
  XRPD after vacuum drying: decreased relative intensity of the diffraction peaks

## C#C[C@]1(CO)O[C@@H](n2cnc3c(N)nc(F)nc32)[C@@H](F)[C@@H]1O [type VI crystal]
[1]; [5]
  XRPD after heating: crystal form was transformed

## C#C[C@]1(CO)O[C@@H](n2cnc3c(N)nc(F)nc32)[C@@H](F)[C@@H]1O [type I crystal]
[1]; heated to 55° C. under nitrogen, cooled to room temperature, exposed to air
  XRPD after heating: diffraction peak intensity of the sample was somewhat decreased
[1]; heated to 100° C. under nitrogen protection
  XRPD after heating: transformed into an amorphous crystal

## C#C[C@]1(CO)O[C@@H](n2cnc3c(N)nc(F)nc32)[C@@H](F)[C@@H]1O [type X crystal]
[1]; further heated to 130° C.
  variable-temperature XRPD: diffraction peak intensity was significantly reduced
[1]; further heated to 145° C.
  variable-temperature XRPD: crystal form was transformed
[1]; heated to 120° C. while purging with nitrogen
  variable-temperature XRPD: position of the diffraction peak shifted
